The text below walks through data of PMC9105976, “A Novel β-Hairpin Peptide Z-d14CFR Enhances Multidrug-Resistant Bacterial Clearance in a Murine Model of Mastitis” (International Journal of Molecular Sciences, 2022).

Positions of bridges follow the written chain, without caps; N, C: chain ends. Residues, ends and D or L forms follow the SMILES beside them.

Series [1] relates to Klebsiella pneumoniae CAU202084. Kind of series: MIC/MBC, microdilution broth method. In kind it is cell-based. To be noted: Klebsiella pneumoniae CAU202084 (MDR isolate). The procedure: (§1) The MIC of peptides against bacteria was carried out by the microdilution broth method. The bacterial culture (OD 600 = 0.6) was diluted in 10 mM PBS to 1 × 10^6 CFU/mL. The bacterial suspension (100 μL) was added to 96-well plates, and the same volume of peptides, ampicillin or gentamicin (concentrations ranging from 0.001 to 2 mg/mL) were then added to the same 96-well plates, respectively.

For series [2], the system named is Proteus vulgaris CVCC1971. Briefly: MIC/MBC, microdilution broth method. In kind it is cell-based. To be noted: Proteus vulgaris CVCC1971. The procedure: as §1
Series [3] has as its system Salmonella typhimurium ATCC14028. Briefly: MIC/MBC, microdilution broth method. To be noted: Salmonella typhimurium ATCC14028. The class given is cell-based. The procedure:
as §1

The test system of series [4] is Staphylococcus haemolyticus CAU202078. Kind of series: MIC/MBC, microdilution broth method. In kind it is cell-based. The following applies: Staphylococcus haemolyticus CAU202078 (MDR isolate). The procedure: as §1
Series [5] relates to Streptococcus suis CVCC3307. Kind of series: MIC/MBC, microdilution broth method. In kind it is cell-based. To be noted: Streptococcus suis CVCC3307. The procedure: as §1
Series [6] deals with MRSA ATCC33591. Kind of series: MIC/MBC, microdilution broth method. In kind it is cell-based, S. aureus. The procedure:
as §1

The nature of series [7]: Retention time of peptide in HPLC (hydrophobicity). In kind it is physicochemical. To be noted: used as measure of hydrophobicity (order Z-d14CR > Z-d14CF > Z-d13 > Z-d14CFR > Z-d14C); column and gradient not given.
The mark [8] stands for this setting: 1 × 10^6 CFU/mL, 18 h at 37 °C, NA = no antimicrobial activity at 1 mg/mL.
[9] abbreviates: kills 99.9% bacteria, NA = no activity at 1 mg/mL.

On to `CC(C)[C@@H]1NC(=O)[C@@H]2CSSC[C@H](NC(=O)[C@H](CCCNC(=N)N)NC(=O)[C@@H](NC(=O)CNC(=O)[C@@H](N)CCCNC(=N)N)CSSC[C@@H](C(=O)N[C@@H](CCCNC(=N)N)C(N)=O)NC1=O)C(=O)N[C@@H](CC(N)=O)C(=O)N[C@@H](CO)C(=O)N[C@@H](CCCCN)C(=O)N[C@@H](CO)C(=O)N[C@@H](C(C)C)C(=O)N2` [Z-d14CR] (H-RGCRCNSKSVCVCR-NH2; disulfide 3-13, 5-11; N-terminus assumed), for which the MIC entry was “NA (NA) (No antimicrobial activity at 1 mg/mL)” in series [1] (setting [8]); “NA (NA) (No antimicrobial activity at 1 mg/mL)” in series [2] (setting [8]); “NA (NA) (No antimicrobial activity at 1 mg/mL)” in series [3] (setting [8]); “NA (NA) (No antimicrobial activity at 1 mg/mL)” in series [4] (setting [8]); “NA (NA) (No antimicrobial activity at 1 mg/mL)” in series [5] (setting [8]); “NA (NA) (No antimicrobial activity at 1 mg/mL)” in series [6] (MRSA (methicillin-resistant S. aureus) ATCC33591, 1 × 10^6 CFU/mL, 18 h at 37 °C, NA = no antimicrobial activity at 1 mg/mL). The MBC result is given as “NA (NA) (No antimicrobial activity at 1 mg/mL)” in series [1] (setting [9]); “NA (NA) (No antimicrobial activity at 1 mg/mL)” in series [2] (setting [9]); “NA (NA) (No antimicrobial activity at 1 mg/mL)” in series [3] (setting [9]); “NA (NA) (No antimicrobial activity at 1 mg/mL)” in series [4] (setting [9]); “NA (NA) (No antimicrobial activity at 1 mg/mL)” in series [5] (setting [9]); “NA (NA) (No antimicrobial activity at 1 mg/mL)” in series [6] (MRSA ATCC33591, kills 99.9% bacteria, NA = no activity at 1 mg/mL). Besides, in series [7], the “RT, retention time of peptide in HPLC” value is listed as 10.159 min.
